Reference: PubChem BioAssay (NCI)
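48-hour exposure; five concentrations; linearly interpolated endpoints. GI50 = concentration required for 50% inhibition of growth. TGI is the concentration that stops growth completely.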

Tests used:
Assay in all cases: NCI tumour cell line growth inhibition, 48 h; in the data active = GI50 below about 0.43 µM; inactive = the rest
786-0 renal = test system: 786-0 renal
SF-268 CNS = test system: SF-268 CNS
SF-295 CNS = test system: SF-295 CNS
HOP-92 NSCLC = test system: HOP-92 NSCLC
NCI-H522 lung = test system: NCI-H522 lung
SNB-19 CNS = test system: SNB-19 CNS
IGROV1 ovarian = test system: IGROV1 ovarian
MCF7 breast = test system: MCF7 breast
PC-3 prostate = test system: PC-3 prostate
MALME-3M melanoma = test system: MALME-3M melanoma
HCT-116 colon = test system: HCT-116 colon
ACHN renal = test system: ACHN renal
CAKI-1 renal = test system: CAKI-1 renal
SW-620 colon = test system: SW-620 colon
UO-31 renal = test system: UO-31 renal
A498 renal = test system: A498 renal
U251 CNS = test system: U251 CNS
HOP-62 NSCLC = test system: HOP-62 NSCLC
SK-MEL-2 melanoma = test system: SK-MEL-2 melanoma
BT-549 breast = test system: BT-549 breast
NCI/ADR-RES ovarian = test system: NCI/ADR-RES ovarian
CCRF-CEM leukemia = test system: CCRF-CEM leukemia
SK-MEL-5 melanoma = test system: SK-MEL-5 melanoma
LOX IMVI melanoma = test system: LOX IMVI melanoma
OVCAR-4 ovarian = test system: OVCAR-4 ovarian
KM12 colon = test system: KM12 colon
SR leukemia = test system: SR leukemia
HS 578T breast = test system: HS 578T breast
TK-10 renal = test system: TK-10 renal
UACC-62 melanoma = test system: UACC-62 melanoma
HCC-2998 colon = test system: HCC-2998 colon
K-562 leukemia = test system: K-562 leukemia
NCI-H23 lung = test system: NCI-H23 lung
SF-539 CNS = test system: SF-539 CNS
RXF 393 renal = test system: RXF 393 renal
T-47D breast = test system: T-47D breast
SN12C renal = test system: SN12C renal
MDA-MB-231 breast = test system: MDA-MB-231 breast
OVCAR-8 ovarian = test system: OVCAR-8 ovarian
HCT-15 colon = test system: HCT-15 colon
NCI-H460 lung = test system: NCI-H460 lung
SNB-75 CNS = test system: SNB-75 CNS
SK-OV-3 ovarian = test system: SK-OV-3 ovarian
SK-MEL-28 melanoma = test system: SK-MEL-28 melanoma
NCI-H226 lung = test system: NCI-H226 lung
RPMI-8226 leukemia = test system: RPMI-8226 leukemia
UACC-257 melanoma = test system: UACC-257 melanoma
MOLT-4 leukemia = test system: MOLT-4 leukemia
DU-145 prostate = test system: DU-145 prostate
HL-60(TB) leukemia = test system: HL-60(TB) leukemia
A549 NSCLC = test system: A549 NSCLC
HT29 colon = test system: HT29 colon
OVCAR-5 ovarian = test system: OVCAR-5 ovarian
COLO 205 colon = test system: COLO 205 colon
OVCAR-3 ovarian = test system: OVCAR-3 ovarian
M14 melanoma = test system: M14 melanoma

COc1ccc2c(=O)cc(C(Cl)(Cl)Cl)oc2c1
3820 nM: TGI (RPMI-8226 leukemia)
18900 nM: TGI (PC-3 prostate)
17500 nM: TGI (UACC-62 melanoma)
836 nM: TGI (HL-60(TB) leukemia)
14600 nM: TGI (MCF7 breast) | TGI (CAKI-1 renal)
14900 nM: TGI (MDA-MB-231 breast)
31500 nM: TGI (SK-OV-3 ovarian)
40400 nM: TGI (TK-10 renal)
15600 nM: TGI (SF-268 CNS)
14300 nM: TGI (HCT-116 colon)
20400 nM: TGI (RXF 393 renal)
11300 nM: TGI (HCC-2998 colon)
11100 nM: TGI (U251 CNS)
26400 nM: TGI (SK-MEL-2 melanoma)
10900 nM: TGI (HT29 colon)
15500 nM: TGI (A549 NSCLC)
10600 nM: TGI (BT-549 breast)
13000 nM: TGI (SF-295 CNS)
23200 nM: TGI (SK-MEL-28 melanoma)
91500 nM: TGI (SR leukemia)
30700 nM: TGI (OVCAR-4 ovarian)
10400 nM: TGI (OVCAR-8 ovarian)
active: GI50 (786-0 renal) 324 nM | GI50 (SF-268 CNS) 377 nM | GI50 (HOP-92 NSCLC) 361 nM | GI50 (NCI-H522 lung) 228 nM | GI50 (MCF7 breast) 262 nM | GI50 (PC-3 prostate) 390 nM | GI50 (HCT-116 colon) 299 nM | GI50 (ACHN renal) 412 nM | GI50 (CAKI-1 renal) 376 nM | GI50 (SW-620 colon) 237 nM | GI50 (A498 renal) 213 nM | GI50 (BT-549 breast) 336 nM | GI50 (NCI/ADR-RES ovarian) 296 nM | GI50 (CCRF-CEM leukemia) 309 nM | GI50 (SK-MEL-5 melanoma) 278 nM | GI50 (LOX IMVI melanoma) 173 nM | GI50 (OVCAR-4 ovarian) 423 nM | GI50 (KM12 colon) 320 nM | GI50 (SR leukemia) 58 nM | GI50 (HCC-2998 colon) 400 nM | GI50 (K-562 leukemia) 52.5 nM | GI50 (NCI-H23 lung) 409 nM | GI50 (SF-539 CNS) 208 nM | GI50 (MDA-MB-231 breast) 333 nM | GI50 (OVCAR-8 ovarian) 338 nM | GI50 (HCT-15 colon) 240 nM | GI50 (NCI-H460 lung) 364 nM | GI50 (SNB-75 CNS) 327 nM | GI50 (RPMI-8226 leukemia) 389 nM | GI50 (MOLT-4 leukemia) 302 nM | GI50 (DU-145 prostate) 309 nM | GI50 (HL-60(TB) leukemia) 269 nM | GI50 (HT29 colon) 345 nM | GI50 (OVCAR-5 ovarian) 385 nM
14100 nM: TGI (786-0 renal)
971 nM: TGI (DU-145 prostate)
48600 nM: TGI (HS 578T breast)
41600 nM: TGI (UACC-257 melanoma)
35600 nM: TGI (MALME-3M melanoma)
48100 nM: TGI (SNB-19 CNS)
833 nM: TGI (SK-MEL-5 melanoma)
12500 nM: TGI (KM12 colon)
15700 nM: TGI (UO-31 renal)
21300 nM: TGI (IGROV1 ovarian)
inactive: GI50 (SF-295 CNS) 1270 nM | GI50 (SNB-19 CNS) 3770 nM | GI50 (IGROV1 ovarian) 633 nM | GI50 (MALME-3M melanoma) 5710 nM | GI50 (UO-31 renal) 637 nM | GI50 (U251 CNS) 1140 nM | GI50 (HOP-62 NSCLC) 1040 nM | GI50 (SK-MEL-2 melanoma) 488 nM | GI50 (HS 578T breast) 979 nM | GI50 (TK-10 renal) 8360 nM | GI50 (UACC-62 melanoma) 438 nM | GI50 (RXF 393 renal) 676 nM | GI50 (T-47D breast) 12200 nM | GI50 (SN12C renal) 519 nM | GI50 (SK-OV-3 ovarian) 511 nM | GI50 (SK-MEL-28 melanoma) 632 nM | GI50 (NCI-H226 lung) 14800 nM | GI50 (UACC-257 melanoma) 12000 nM | GI50 (A549 NSCLC) 444 nM
4440 nM: TGI (MOLT-4 leukemia)
8630 nM: TGI (NCI-H460 lung)
683 nM: TGI (NCI-H522 lung)
11900 nM: TGI (SN12C renal)
23300 nM: TGI (HOP-92 NSCLC)
27600 nM: TGI (HOP-62 NSCLC)
> 100000 nM: TGI (K-562 leukemia)
14200 nM: TGI (NCI/ADR-RES ovarian) | TGI (HCT-15 colon)
15100 nM: TGI (SNB-75 CNS)
583 nM: TGI (SF-539 CNS)
3360 nM: TGI (A498 renal)
15800 nM: TGI (OVCAR-5 ovarian)
35800 nM: TGI (NCI-H226 lung)
55300 nM: TGI (T-47D breast)
14500 nM: TGI (SW-620 colon)
5030 nM: TGI (LOX IMVI melanoma)
19300 nM: TGI (NCI-H23 lung)
13800 nM: TGI (ACHN renal)

Nc1c(C(=O)Nc2cccc(F)c2)sc2nc3c(cc12)C(=O)CCC3
> 69000 nM: TGI (U251 CNS)
> 100000 nM: TGI (786-0 renal) | TGI (SF-268 CNS) | TGI (HOP-92 NSCLC) | TGI (NCI-H522 lung) | TGI (SNB-19 CNS) | TGI (IGROV1 ovarian) | TGI (MCF7 breast) | TGI (PC-3 prostate) | TGI (MALME-3M melanoma) | TGI (HCT-116 colon) | TGI (ACHN renal) | TGI (CAKI-1 renal) | TGI (SW-620 colon) | TGI (UO-31 renal) | TGI (A498 renal) | TGI (HOP-62 NSCLC) | TGI (BT-549 breast) | TGI (NCI/ADR-RES ovarian) | TGI (CCRF-CEM leukemia) | TGI (SK-MEL-5 melanoma) | TGI (LOX IMVI melanoma) | TGI (OVCAR-4 ovarian) | TGI (KM12 colon) | TGI (HS 578T breast) | TGI (TK-10 renal) | TGI (UACC-62 melanoma) | TGI (HCC-2998 colon) | TGI (NCI-H23 lung) | TGI (SF-539 CNS) | TGI (T-47D breast) | TGI (SN12C renal) | TGI (OVCAR-8 ovarian) | TGI (HCT-15 colon) | TGI (NCI-H460 lung) | TGI (SK-OV-3 ovarian) | TGI (SK-MEL-28 melanoma) | TGI (NCI-H226 lung) | TGI (OVCAR-3 ovarian) | TGI (RPMI-8226 leukemia) | TGI (MOLT-4 leukemia) | TGI (M14 melanoma) | TGI (DU-145 prostate) | TGI (HL-60(TB) leukemia) | TGI (A549 NSCLC) | TGI (HT29 colon) | TGI (OVCAR-5 ovarian)
> 56500 nM: TGI (SNB-75 CNS)
> 75000 nM: TGI (K-562 leukemia)
751 nM: TGI (COLO 205 colon)
active: GI50 (SF-295 CNS) 245 nM | GI50 (NCI-H522 lung) 371 nM | GI50 (MCF7 breast) 304 nM | GI50 (PC-3 prostate) 347 nM | GI50 (MALME-3M melanoma) 377 nM | GI50 (CAKI-1 renal) 387 nM | GI50 (SW-620 colon) 350 nM | GI50 (A498 renal) 27.4 nM | GI50 (CCRF-CEM leukemia) 341 nM | GI50 (SK-MEL-5 melanoma) 391 nM | GI50 (KM12 colon) 384 nM | GI50 (COLO 205 colon) 273 nM | GI50 (K-562 leukemia) 160 nM | GI50 (SF-539 CNS) 287 nM | GI50 (RXF 393 renal) 248 nM | GI50 (HCT-15 colon) 298 nM | GI50 (NCI-H460 lung) 356 nM | GI50 (SNB-75 CNS) 339 nM | GI50 (OVCAR-3 ovarian) 351 nM | GI50 (M14 melanoma) 397 nM | GI50 (DU-145 prostate) 354 nM | GI50 (HL-60(TB) leukemia) 322 nM | GI50 (A549 NSCLC) 378 nM | GI50 (HT29 colon) 307 nM
> 81600 nM: TGI (SK-MEL-2 melanoma)
> 80000 nM: TGI (SF-295 CNS)
> 70600 nM: TGI (SR leukemia)
> 75200 nM: TGI (MDA-MB-231 breast)
inactive: GI50 (786-0 renal) 595 nM | GI50 (SF-268 CNS) 37000 nM | GI50 (HOP-92 NSCLC) 589 nM | GI50 (SNB-19 CNS) 29500 nM | GI50 (IGROV1 ovarian) 3020 nM | GI50 (HCT-116 colon) 447 nM | GI50 (ACHN renal) 842 nM | GI50 (U251 CNS) 488 nM | GI50 (HOP-62 NSCLC) 685 nM | GI50 (SK-MEL-2 melanoma) 492 nM | GI50 (BT-549 breast) 3710 nM | GI50 (NCI/ADR-RES ovarian) 487 nM | GI50 (LOX IMVI melanoma) 772 nM | GI50 (OVCAR-4 ovarian) > 55100 nM | GI50 (SR leukemia) 481 nM | GI50 (HS 578T breast) 634 nM | GI50 (TK-10 renal) > 100000 nM | GI50 (UACC-62 melanoma) 491 nM | GI50 (HCC-2998 colon) 1010 nM | GI50 (NCI-H23 lung) 608 nM | GI50 (SN12C renal) 743 nM | GI50 (MDA-MB-231 breast) 1670 nM | GI50 (OVCAR-8 ovarian) 31100 nM | GI50 (SK-OV-3 ovarian) 436 nM | GI50 (SK-MEL-28 melanoma) 20500 nM | GI50 (NCI-H226 lung) > 90100 nM | GI50 (RPMI-8226 leukemia) > 34500 nM | GI50 (MOLT-4 leukemia) 21900 nM | GI50 (OVCAR-5 ovarian) 2240 nM
